Data from PubChem BioAssay AID1963966 (Molecular Pharmacology Branch, DTP, NCI, 2024).

Tested on: 935938-334-R-J1-PDC spheroids with HUVEC/MSC, viability
Experiment: Anticancer human tumor 935938-334-R-J1-PDC patient-derived small intestine adenocarcinoma cell line growth inhibition [PI3K]
Settings: for viability, T/C: stronger effect = lower value
Text: Combinatorial screen of targeted agents with the PI3K inhibitors inavolisib, alpelisib, duvelisib, and copanlisib in multi-cell type tumor spheroids
A high-throughput screen of multi-cell type tumor spheroids was designed to identify active combinations of targeted small molecules and PI3K pathway inhibitors. Complex spheroids include a stromal component modeled by human endothelial cells (HUVEC) and fibroblasts modeled by human mesenchymal stem cells (MSCs). The concentration ranges selected for each drug and investigational agent were based upon clinically achievable concentrations if the clinical Cmax of the agent was known.
Compounds. The drugs and investigational agents: inavolisib (NSC800729), alpelisib (NSC765974), duvelisib (NSC772469), copanlisib (NSC816437), ipatasertib (NSC767898), afuresertib (NSC778305), talazoparib (NSC767125), sapanisertib (NSC764658), selumetinib (NSC741078), tovorafenib (DAY101, NSC766906), vemurafenib (NSC761431), ravoxertinib (NSC781343), sotorasib (NSC818433), MRTX1133 (NSC 836407), abemaciclib (NSC 768073), palbociclib (NSC758247), venetoclax (NSC 766270), SY5609 (NSC837396), enzalutamide (NSC755605), and darolutamide (NSC825331), were obtained from the National Cancer Institute (NCI) Developmental Therapeutics Program Chemical Repository. The FDA-approved anticancer drug set is available from the NCI Developmental Therapeutics Program. […] The stock solutions were prepared in dimethyl sulfoxide (DMSO, Sigma-Aldrich, St. Louis, MO, cat. D2650) at 800-fold the tested concentration and stored at -70 degrees C prior to their use. All drugs and investigational agents were tested over a range starting from a high concentration at or near the clinical Cmax and decreasing in half-log increments. If the clinical Cmax for an agent had not been determined, the highest concentration tested was 10 microM.
Cell Culture. All cells were maintained in an incubator at 37 degrees C and 5% CO2 with 95% humidity. The PDC lines were cultured according to standard operating procedures established by the NCI PDMR (https://pdmr.cancer.gov/sops/default.htm). All PDCs were thawed and cultured in Matrigel-coated flasks prepared with a working solution of 1X Ham's F-12 nutrient mix, without supplementation (Invitrogen, Waltham, MA, cat. 11765054), 100 U/mL penicillin-streptomycin (Invitrogen, cat. 15140122), and 2.5% Matrigel (Corning Inc., Corning, NY, cat. 354248) for the first three passages. The 354836-022-R-J1-PDC, 475296-252-R-J1-PDC, and 997726-040-R-J2-PDC lines were cultured in 6A media, which includes advanced DMEM/F-12 (Thermo Fisher Scientific, cat. 12634028), 10 mM HEPES (Thermo Fisher Scientific, cat. 15630080), 1X GlutaMAX supplement (Thermo Fisher Scientific, cat. 35050061), 0.1 mg/mL primocin (InvivoGen, San Diego, CA, cat. ant-pm-2), 10% defined fetal bovine serum, heat inactivated (HyClone Laboratories Inc., Logan, UT, cat. SH30070.03HI), 50% L-WRN conditioned media (ATCC, cat. CRL-3276), 1.25 mM N-Acetyl-L-cysteine (Sigma-Aldrich, cat. A9165), 10 mM nicotinamide (Sigma-Aldrich, cat. N0636), 1X B-27 supplement (Thermo Fisher Scientific, cat. 17504044), 1X N-2 supplement (Thermo Fisher Scientific, cat. 17502048), and 10 microM Y-27632 dihydrochloride (Tocris Bioscience, Bristol, United Kingdom, cat. 1254). The 624824-186-R-J2-PDC line was cultured in 6C/Colon 1B media, which includes all 6A media components plus 50 ng/mL human EGF recombinant protein (Thermo Fisher Scientific, cat. PHG0311). […]

[1] = curve of first compound, second compound 0.00316 µM
[2] = curve of first compound, second compound 0.01 µM
[3] = curve of first compound, second compound 0.0316 µM
[4] = curve of first compound, second compound 0.1 µM
[5] = curve of first compound, second compound 0.316 µM
[6] = curve of first compound, second compound 1 µM
[7] = second compound 0.00316 µM, first compound 0.0316 µM
[8] = second compound 0.00316 µM, first compound 0.1 µM
[9] = second compound 0.01 µM, first compound 0.0316 µM
[10] = second compound 0.01 µM, first compound 0.1 µM
[11] = second compound 0.0316 µM, first compound 0.0316 µM
[12] = second compound 0.0316 µM, first compound 0.1 µM
[13] = second compound 0.1 µM, first compound 0.0316 µM
[14] = second compound 0.1 µM, first compound 0.1 µM
[15] = second compound 0.316 µM, first compound 0.0316 µM
[16] = second compound 0.316 µM, first compound 0.1 µM
[17] = second compound 1 µM, first compound 0.0316 µM
[18] = second compound 1 µM, first compound 0.1 µM
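Also: compound exposure lasted seven days before viability was read.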
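For viability, T/C in this document: percent of vehicle DMSO treated spheroid viability so 100% = untreated.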

Work on CC(C)NCC(C(=O)N1CCN(c2ncnc3c2C(C)CC3O)CC1)c1ccc(Cl)cc1 (stereo not given) + COc1c(OCCCN2CCOCC2)ccc2c3n(c(=NC(=O)c4cnc(N)nc4)nc12)CCN3 yielded an IC50 [1] of 5660 nM, an IC50 [2] of 2730 nM and an IC50 [3] of 1310 nM. For the same compound, the IC50 [4] was under 31.6 nM, the IC50 [5] was under 31.6 nM and the IC50 [6] was under 31.6 nM. The viability, T/C [7] was 94.5%, the viability, T/C [8] was 99% and the viability, T/C (second compound 0.00316 µM, first compound 0.316 µM) was 84.8%. For the same compound, the viability, T/C (second compound 0.00316 µM, first compound 1 µM) was 65.5%, the viability, T/C (second compound 0.00316 µM, first compound 3.16 µM) was 62.5% and the viability, T/C (second compound 0.00316 µM, first compound 10 µM) was 41.5%. For the same compound, the viability, T/C [9] was 85.5%, the viability, T/C [10] was 106% and the viability, T/C (second compound 0.01 µM, first compound 0.316 µM) was 82%. For the same compound, the viability, T/C (second compound 0.01 µM, first compound 1 µM) was 61.1%, the viability, T/C (second compound 0.01 µM, first compound 3.16 µM) was 54.5% and the viability, T/C (second compound 0.01 µM, first compound 10 µM) was 39.8%. For the same compound, the viability, T/C [11] was 84.2%, the viability, T/C [12] was 67.4% and the viability, T/C (second compound 0.0316 µM, first compound 0.316 µM) was 68%. It also gave a viability, T/C (second compound 0.0316 µM, first compound 1 µM) of 48.5%, a viability, T/C (second compound 0.0316 µM, first compound 3.16 µM) of 45.5% and a viability, T/C (second compound 0.0316 µM, first compound 10 µM) of 29.5%. It also gave a viability, T/C [13] of 48.3%, a viability, T/C [14] of 49.4% and a viability, T/C (second compound 0.1 µM, first compound 0.316 µM) of 39.3%. The viability, T/C (second compound 0.1 µM, first compound 1 µM) was 44.3%, the viability, T/C (second compound 0.1 µM, first compound 3.16 µM) was 40.8% and the viability, T/C (second compound 0.1 µM, first compound 10 µM) was 30.4%. It also gave a viability, T/C [15] of 30.6%, a viability, T/C [16] of 40.4% and a viability, T/C (second compound 0.316 µM, first compound 0.316 µM) of 29.8%. The viability, T/C (second compound 0.316 µM, first compound 1 µM) was 33.7%, the viability, T/C (second compound 0.316 µM, first compound 3.16 µM) was 26.7% and the viability, T/C (second compound 0.316 µM, first compound 10 µM) was 30.3%. For the same compound, the viability, T/C [17] was 36.6%, the viability, T/C [18] was 34.7% and the viability, T/C (second compound 1 µM, first compound 0.316 µM) was 37%. For the same compound, the viability, T/C (second compound 1 µM, first compound 1 µM) was 34.2%, the viability, T/C (second compound 1 µM, first compound 3.16 µM) was 30.1% and the viability, T/C (second compound 1 µM, first compound 10 µM) was 33.2%.
Work on Cn1ncnc1[C@H]1c2n[nH]c(=O)c3cc(F)cc(c23)N[C@@H]1c1ccc(F)cc1 + COc1c(OCCCN2CCOCC2)ccc2c3n(c(=NC(=O)c4cnc(N)nc4)nc12)CCN3 yielded an IC50 [1] of over 100 nM, an IC50 [2] of over 100 nM and an IC50 [3] of over 100 nM. It also gave an IC50 [4] of 8.29 nM, an IC50 [5] of under 0.316 nM and an IC50 [6] of under 0.316 nM. The viability, T/C (second compound 0.00316 µM, first compound 0.000316 µM) was 90.8%, the viability, T/C (second compound 0.00316 µM, first compound 0.001 µM) was 96.6% and the viability, T/C (second compound 0.00316 µM, first compound 0.00316 µM) was 103%. It also gave a viability, T/C (second compound 0.00316 µM, first compound 0.01 µM) of 83.3%, a viability, T/C [7] of 96.2% and a viability, T/C [8] of 92.8%. The viability, T/C (second compound 0.01 µM, first compound 0.000316 µM) was 109%, the viability, T/C (second compound 0.01 µM, first compound 0.001 µM) was 106% and the viability, T/C (second compound 0.01 µM, first compound 0.00316 µM) was 92.3%. For the same compound, the viability, T/C (second compound 0.01 µM, first compound 0.01 µM) was 82.2%, the viability, T/C [9] was 92.4% and the viability, T/C [10] was 77.4%. For the same compound, the viability, T/C (second compound 0.0316 µM, first compound 0.000316 µM) was 77%, the viability, T/C (second compound 0.0316 µM, first compound 0.001 µM) was 65.6% and the viability, T/C (second compound 0.0316 µM, first compound 0.00316 µM) was 90.2%. For the same compound, the viability, T/C (second compound 0.0316 µM, first compound 0.01 µM) was 82.2%, the viability, T/C [11] was 73.8% and the viability, T/C [12] was 76%. It also gave a viability, T/C (second compound 0.1 µM, first compound 0.000316 µM) of 56%, a viability, T/C (second compound 0.1 µM, first compound 0.001 µM) of 52% and a viability, T/C (second compound 0.1 µM, first compound 0.00316 µM) of 57.5%. It also gave a viability, T/C (second compound 0.1 µM, first compound 0.01 µM) of 47.2%, a viability, T/C [13] of 43.5% and a viability, T/C [14] of 50.2%. For the same compound, the viability, T/C (second compound 0.316 µM, first compound 0.000316 µM) was 31.2%, the viability, T/C (second compound 0.316 µM, first compound 0.001 µM) was 35.3% and the viability, T/C (second compound 0.316 µM, first compound 0.00316 µM) was 34.5%. For the same compound, the viability, T/C (second compound 0.316 µM, first compound 0.01 µM) was 34.6%, the viability, T/C [15] was 34.2% and the viability, T/C [16] was 35.4%. For the same compound, the viability, T/C (second compound 1 µM, first compound 0.000316 µM) was 33.1%, the viability, T/C (second compound 1 µM, first compound 0.001 µM) was 40.3% and the viability, T/C (second compound 1 µM, first compound 0.00316 µM) was 37.5%. The viability, T/C (second compound 1 µM, first compound 0.01 µM) was 32.7%, the viability, T/C [17] was 36% and the viability, T/C [18] was 35.1%.
CNC(=O)c1ccc(N2C(=S)N(c3ccc(C#N)c(C(F)(F)F)c3)C(=O)C2(C)C)cc1F was tested, and the viability, T/C (compound 0.0316 µM) was 95.8% [middle of 4 runs], the viability, T/C (compound 0.1 µM) was 97.6% [middle of 4 runs] and the viability, T/C (compound 0.316 µM) was 96.2% [middle of 4 runs]. For the same compound, the viability, T/C (compound 3.16 µM) was 101% [middle of 4 runs], the viability, T/C (compound 10 µM) was 97.4% [middle of 4 runs] and the IC50 (curve of compound) was over 10000 nM.
